Results: PubChem BioAssay AID330 (DTP/NCI, 2004)
Values joined by “and” are separate entries in the source; they are usually repeats but may differ in a detail not shown here. Identical values can stand only once. Toxic doses and inconclusive results are not listed. The calls were made as follows: active = survival T/C of 150% or more; inactive = T/C below 125% in these data.

Test system: P388 leukemia ip, CD2F1 mice, survival T/C
Assay: NCI In Vivo Anticancer Drug Screen. Data for tumor model P388 Leukemia (intraperitoneal) in CD2F1 (CDF1) mice
Conditions: endpoint: median survival time, higher = longer survival
Summary of the method: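 Mice carrying the transplanted tumor received test compound or vehicle. Survival was recorded in each group, and the value is the treated-group measurement divided by that of the vehicle-treated control group.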

[1] = dose: 50.0 mg/kg/injection, schedule: Q01DX009 (ip), vehicle: saline
[2] = dose: 100.0 mg/kg/injection, schedule: Q01DX009 (ip), vehicle: saline
[3] = dose: 200.0 mg/kg/injection, schedule: Q01DX009 (ip), vehicle: saline
[4] = dose: 60.0 mg/kg/injection, schedule: Q01DX005 (ip), vehicle: saline with Tween-80
[5] = dose: 25.0 mg/kg/injection, schedule: Q01DX009 (ip), vehicle: saline with Tween-80
[6] = dose: 50.0 mg/kg/injection, schedule: Q01DX009 (ip), vehicle: saline with Tween-80
[7] = dose: 200.0 mg/kg/injection, schedule: Q01DX009 (ip), vehicle: saline with Tween-80
[8] = dose: 25.0 mg/kg/injection, schedule: Q01DX009 (ip), vehicle: Klucel (hydroxypropylcellulose) (HPC)
[9] = dose: 50.0 mg/kg/injection, schedule: Q01DX009 (ip), vehicle: Klucel (hydroxypropylcellulose) (HPC)
[10] = dose: 100.0 mg/kg/injection, schedule: Q01DX009 (ip), vehicle: Klucel (hydroxypropylcellulose) (HPC)
[11] = dose: 100.0 mg/kg/injection, schedule: Q01DX009 (ip), vehicle: saline with Tween-80
[12] = dose: 50.0 mg/kg/injection, schedule: Q01DX005 (ip), vehicle: saline with Tween-80
[13] = dose: 100.0 mg/kg/injection, schedule: Q01DX005 (ip), vehicle: saline with Tween-80
[14] = dose: 200.0 mg/kg/injection, schedule: Q01DX005 (ip), vehicle: saline with Tween-80
[15] = dose: 30.0 mg/kg/injection, schedule: Q01DX005 (ip), vehicle: saline with Tween-80
[16] = dose: 100.0 mg/kg/injection, schedule: Q04DX002 (ip), vehicle: saline with Tween-80
[17] = dose: 200.0 mg/kg/injection, schedule: Q04DX002 (ip), vehicle: saline with Tween-80

Measured: T/C

C=C(COC(=O)/C=C\C)C(=O)OCC
inactive: [1] 106 % of control | [2] 99 % of control | [3] 106 % of control

CC(=O)OCC(COC(C)=O)(CN1C(=O)c2ccccc2C1=O)CN1C(=O)c2ccccc2C1=O
inactive: [4] 100 % of control | dose: 120.0 mg/kg/injection, schedule: Q01DX005 (ip), vehicle: saline with Tween-80 102 % of control | dose: 240.0 mg/kg/injection, schedule: Q01DX005 (ip), vehicle: saline with Tween-80 102 % of control

S=C1Nc2ccccc2C2CC=NN12 (stereo unspecified)
inactive: dose: 12.5 mg/kg/injection, schedule: Q01DX009 (ip), vehicle: saline with Tween-80 91 % of control | [5] 112 % of control | [6] 88 % of control and 96 % of control | [7] 86 % of control

S=c1[nH]c2ccccc2c2ccccc12
inactive: [8] 100 % of control | [9] 100 % of control | [10] 88 % of control | dose: 200.0 mg/kg/injection, schedule: Q01DX009 (ip), vehicle: Klucel (hydroxypropylcellulose) (HPC) 92 % of control

CCCCCCNC(N)=NCCCC(N)C(=O)O (stereo unspecified)
inactive: dose: 50.0 mg/kg/injection, schedule: Q01DX005 (ip), vehicle: Klucel (hydroxypropylcellulose) (HPC) 103 % of control | dose: 100.0 mg/kg/injection, schedule: Q01DX005 (ip), vehicle: Klucel (hydroxypropylcellulose) (HPC) 102 % of control | dose: 200.0 mg/kg/injection, schedule: Q01DX005 (ip), vehicle: Klucel (hydroxypropylcellulose) (HPC) 106 % of control

CC1=NN(C(=O)c2ccncc2)C(=O)C1N=Nc1ccc(S(=O)(=O)N=C(N)N)cc1 (stereo unspecified)
inactive: [6] 97 % of control | [11] 94 % of control | [7] 90 % of control

CCCCOC(=O)Nc1ccc(C)c(NC(=O)OCCCC)c1
inactive: [1] 100 % of control | [2] 102 % of control | [3] 100 % of control

CCOC(=O)N1CCN(CCCCCOc2ccc(CC(C)(C)C)cc2Cl)CC1
inactive: [5] 110 % of control | dose: 25.0 mg/kg/injection, schedule: Q01DX009 (ip), vehicle: saline 93 % of control | [6] 106 % of control | [1] 100 % of control | [11] 111 % of control | [2] 113 % of control | [7] 117 % of control | [3] 92 % of control

Cc1cc(=O)c2ccc(N(C)C)cc2[nH]1
inactive: [12] 95 % of control | [13] 96 % of control | [14] 101 % of control

CN1C(=O)n2c(nc3ccccc32)C(N2CCOCC2)(N2CCOCC2)C1=O
inactive: dose: 100.0 mg/kg/injection, schedule: Q01DX001 (ip), vehicle: saline with Tween-80 103 % of control | dose: 200.0 mg/kg/injection, schedule: Q01DX001 (ip), vehicle: saline with Tween-80 96 % of control | dose: 400.0 mg/kg/injection, schedule: Q01DX001 (ip), vehicle: saline with Tween-80 89 % of control

COc1ccc(N2C(N)=NC(N)=NC2(C)C)cc1
inactive: dose: 6.25 mg/kg/injection, schedule: Q01DX005 (ip), vehicle: saline with Tween-80 93 % of control | dose: 12.5 mg/kg/injection, schedule: Q01DX005 (ip), vehicle: saline with Tween-80 102 % of control | dose: 25.0 mg/kg/injection, schedule: Q01DX005 (ip), vehicle: saline with Tween-80 107 % of control

[Pd].c1ccc([PH+](CC[PH+](c2ccccc2)c2ccccc2)c2ccccc2)cc1.c1ccc([PH+](CC[PH+](c2ccccc2)c2ccccc2)c2ccccc2)cc1
inactive: [15] 99 % of control

C=C(C)CC(C)/C(=N\N(C)C)c1ccccc1 (stereo unspecified)
inactive: [1] 98 % of control | [2] 100 % of control | [3] 100 % of control

COC(=O)CC1OCC=C2CN3CCC45C6=CC(=O)C(=O)C([N+](=O)[O-])=C6NC4C1C2CC35 (stereo unspecified)
inactive: dose: 7.5 mg/kg/injection, schedule: Q01DX005 (ip), vehicle: suspension in saline 101 % of control | dose: 15.0 mg/kg/injection, schedule: Q01DX005 (ip), vehicle: suspension in saline 100 % of control

Clc1ccc(-n2cnn3c(-c4ccccc4)ncc23)cc1
inactive: [16] 90 % of control | [17] 87 % of control | dose: 400.0 mg/kg/injection, schedule: Q04DX002 (ip), vehicle: saline with Tween-80 93 % of control

O=c1[nH]ncn1-c1ccccc1
inactive: dose: 12.5 mg/kg/injection, schedule: Q01DX009 (ip), vehicle: Klucel (hydroxypropylcellulose) (HPC) 100 % of control | [8] 109 % of control | [9] 98 % of control | [10] 106 % of control

O=C1C(C(=NC2CCCCC2)c2ccccc2)=C(O)c2ccccc21
inactive: [16] 104 % of control | [17] 100 % of control

C=C1CCC2C(C)(CCC(OCCCCC)C2(C)C(=O)OC)C1CCc1ccoc1 (stereo unspecified)
inactive: dose: 8.25 mg/kg/injection, schedule: Q01DX005 (ip), vehicle: Klucel + Tween-80 100 % of control | dose: 16.5 mg/kg/injection, schedule: Q01DX005 (ip), vehicle: Klucel + Tween-80 102 % of control | dose: 33.0 mg/kg/injection, schedule: Q01DX005 (ip), vehicle: Klucel + Tween-80 100 % of control | dose: 66.0 mg/kg/injection, schedule: Q01DX005 (ip), vehicle: Klucel + Tween-80 94 % of control

O=S(=O)(O)c1ccc(OCCCCCCCCCCOc2ccc(S(=O)(=O)O)cc2)cc1
inactive: dose: 60.0 mg/kg/injection, schedule: Q01DX005 (ip), vehicle: saline 105 % of control | dose: 120.0 mg/kg/injection, schedule: Q01DX005 (ip), vehicle: saline 102 % of control | dose: 240.0 mg/kg/injection, schedule: Q01DX005 (ip), vehicle: saline 98 % of control

CC1=NN(c2ccccc2)C(=O)/C1=C(\[O-])c1ccccc1.CC1=NN(c2ccccc2)C(=O)/C1=C(\[O-])c1ccccc1.[Co+2]
inactive: dose: 15.0 mg/kg/injection, schedule: Q01DX005 (ip), vehicle: saline with Tween-80 100 % of control | [15] 102 % of control | [4] 102 % of control and 109 % of control

CCC(c1ccc(O)cc1)c1cc2c(cc1OCC(=O)O)OCO2 (stereo unspecified)
inactive: [12] 102 % of control | [13] 93 % of control | [14] 99 % of control

Nc1ccc(C(=O)Nc2ccc3cc(S(=O)(=O)O)cc(S(=O)(=O)O)c3c2)cc1
inactive: dose: 50.0 mg/kg/injection, schedule: Q01DX005 (ip), vehicle: saline 103 % of control | dose: 100.0 mg/kg/injection, schedule: Q01DX005 (ip), vehicle: saline 99 % of control | dose: 200.0 mg/kg/injection, schedule: Q01DX005 (ip), vehicle: saline 100 % of control

O=NNc1cnc(-c2ccccc2)c(-c2ccccc2)n1
inactive: dose: 3.12 mg/kg/injection, schedule: Q01DX009 (ip), vehicle: water 103 % of control | dose: 6.25 mg/kg/injection, schedule: Q01DX009 (ip), vehicle: water 104 % of control | dose: 12.5 mg/kg/injection, schedule: Q01DX009 (ip), vehicle: water 105 % of control and 111 % of control | dose: 25.0 mg/kg/injection, schedule: Q01DX009 (ip), vehicle: water 116 % of control and 117 % of control | dose: 100.0 mg/kg/injection, schedule: Q01DX009 (ip), vehicle: water 96 % of control
